Legend:
rice flat sedge = test: Test Example 3: herbicidal effect by foliage application, Wagner pot (Table 18, symbol E); assay type: in vivo, rice flat sedge (Cyperus iria)
In short: (§1)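 Plants were sown in alluvial soil held under 0.1–0.5 cm standing water and grown 14 days in a greenhouse at 25–30 °C. An emulsifiable formulation, water-diluted to the set dose, was then sprayed onto the foliage, and effects were scored three weeks later using previously defined criteria.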

redroot pigweed [1] = test: Test Example 4: herbicidal effect by soil treatment (Table 19, symbol N); assay type: in vivo, redroot pigweed (Amaranthus retroflexus); conditions: amount of applied herbicide 320 g/ha
In short: (§2)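 Pre-emergence style soil spray: seeds under ~1.5 cm sterilized diluvial soil received a uniform coat of emulsion diluted to the predetermined herbicide amount. Greenhouse 25–30° C; readout at week three on previously defined criteria.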

oval-leafed pondweed = test: Test Example 2: herbicidal activity, application during weed generation under submerged conditions (Table 17, symbol C); assay type: in vivo, oval-leafed pondweed (Monochoria vaginalis); conditions: AAH 320 g/ha; application during weed generation, submerged conditions
In short: (§3)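 Wagner pot, alluvial soil, 4 cm flood; mixed sowing of all species; greenhouse 25° C.–30° C. Emulsifiable formulation, water-diluted to predetermined dose, applied to paddy water at 1–2 leaf stage. Effect rated at 3 wk using the earlier test's scoring criteria.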

green foxtail = test: Test Example 5: herbicidal effect by foliage application, plastic box (Table 20, symbol G); assay type: in vivo, green foxtail (Setaria viridis); conditions: foliage application, 320 g/ha, evaluated three weeks after application
In short: (§4)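 Plants were sown into sterilized diluvial soil under about 1.5 cm cover and kept in a greenhouse at 25° C. to 30° C. Fourteen days on, foliage received an even spray of the diluted emulsion. Herbicidal or crop effect was judged three weeks afterwards.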

Italian ryegrass [2] = test: Test Example 5: herbicidal effect by foliage application, plastic box (Table 20, symbol K); assay type: in vivo, Italian ryegrass (Lolium multiflorum); conditions: foliage application, 320 g/ha, evaluated three weeks after application
In short: as §4

barnyard grass [3] = test: Test Example 5: herbicidal effect by foliage application, plastic box (Table 20, symbol H); assay type: in vivo, barnyard grass (Echinochloa crus-galli); conditions: foliage application, 320 g/ha, evaluated three weeks after application
In short: as §4

Chinese sprangletop = test: Test Example 3: herbicidal effect by foliage application, Wagner pot (Table 18, symbol D); assay type: in vivo, chinese sprangletop (Leptochloa chinensis)
In short: as §1

blackgrass = test: Test Example 5: herbicidal effect by foliage application, plastic box (Table 20, symbol J); assay type: in vivo, blackgrass (Alopecurus myosuroides); conditions: foliage application, 320 g/ha, evaluated three weeks after application
In short: as §4

redroot pigweed [4] = test: Test Example 5: herbicidal effect by foliage application, plastic box (Table 20, symbol N); assay type: in vivo, redroot pigweed (Amaranthus retroflexus); conditions: foliage application, 320 g/ha, evaluated three weeks after application
In short: as §4

barnyard grass [5] = test: Test Example 3: herbicidal effect by foliage application, Wagner pot (Table 18, symbol H); assay type: in vivo, barnyard grass (Echinochloa crus-galli)
In short: as §1

Japanese bulrush = test: Test Example 1: herbicidal activity, application before weed generation under submerged conditions (Table 16, symbol B); assay type: in vivo, Japanese bulrush (Schoenoplectus juncoides); conditions: 320 g/ha applied herbicide
In short: (§5)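 Alluvial soil was flooded to 4 cm depth, weed seeds were sown mixed and 2.5-leaf rice seedlings were transplanted. On sowing day, the compound's emulsion, diluted in water to a set dose, was applied to the water surface. Plants grew at 25–30 °C and were scored 0–5 after three weeks.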

late watergrass [6] = test: Test Example 1: herbicidal activity, application before weed generation under submerged conditions (Table 16, symbol A); assay type: in vivo, late watergrass (Echinochloa oryzicola); conditions: 320 g/ha applied herbicide
In short: as §5

late watergrass [7] = test: Test Example 2: herbicidal activity, application during weed generation under submerged conditions (Table 17, symbol A); assay type: in vivo, late watergrass (Echinochloa oryzicola); conditions: AAH 320 g/ha; application during weed generation, submerged conditions
In short: as §3

wild oat = test: Test Example 5: herbicidal effect by foliage application, plastic box (Table 20, symbol I); assay type: in vivo, wild oat (Avena fatua); conditions: foliage application, 320 g/ha, evaluated three weeks after application
In short: as §4

Italian ryegrass [8] = test: Test Example 4: herbicidal effect by soil treatment (Table 19, symbol K); assay type: in vivo, Italian ryegrass (Lolium multiflorum); conditions: amount of applied herbicide 320 g/ha
In short: as §2

windgrass = test: Test Example 4: herbicidal effect by soil treatment (Table 19, symbol L); assay type: in vivo, windgrass (Apera spica-venti); conditions: amount of applied herbicide 320 g/ha
In short: as §2

[9] = amount of applied herbicide 320 g/ha

Row | Structure (SMILES) | herbicidal effect on E (rice flat sedge), rating 0-5 (rice flat sedge; 320 g/ha) | N: redroot pigweed, herbicidal effect rating (redroot pigweed [1]) | herbicidal effect rating, C: oval-leafed pondweed (oval-leafed pondweed) | herbicidal effect on G: green foxtail (green foxtail) | herbicidal effect on K: Italian ryegrass (Italian ryegrass [2]) | herbicidal effect on H: barnyard grass (barnyard grass [3]) | herbicidal effect on D (Chinese sprangletop), rating 0-5 (Chinese sprangletop; 320 g/ha) | herbicidal effect on J: blackgrass (blackgrass) | herbicidal effect on N: redroot pigweed (redroot pigweed [4]) | herbicidal effect on H (barnyard grass), rating 0-5 (barnyard grass [5]; 320 g/ha) | Herbicidal effect on B: Japanese bulrush (grade 0-5) (Japanese bulrush) | Herbicidal effect on A: late watergrass (grade 0-5) (late watergrass [6]) | herbicidal effect rating, A: late watergrass (late watergrass [7]) | herbicidal effect on I: wild oat (wild oat) | K: Italian ryegrass, herbicidal effect rating (Italian ryegrass [8]) | L: windgrass, herbicidal effect rating (windgrass) | herbicidal effect on E: rice flat sedge (rice flat sedge; [9]) | herbicidal effect on D: Chinese sprangletop (Chinese sprangletop; [9]) | herbicidal effect on H: barnyard grass (barnyard grass [5]; [9])
1 | COc1ccccc1-c1sc2ccc(Cl)cc2c1-c1c(O)c(C)nn(C)c1=O [2-101] | 5 (Herbicidal rate of 90% or more (almost completely withered)) | 5 (Herbicidal rate of 90% or more (almost completely withered)) | 5 (Herbicidal rate of 90% or more (almost completely withered)) | 3 (Herbicidal rate of 40% or more and less than 70%) | 4 (Herbicidal rate of 70% or more and less than 90%) | 3 (Herbicidal rate of 40% or more and less than 70%) | 0 (Herbicidal rate of 5% or less (almost no effect)) | 5 (Herbicidal rate of 90% or more (almost completely withered)) | 5 (Herbicidal rate of 90% or more (almost completely withered)) | 4 (Herbicidal rate of 70% or more and less than 90%) | 3 (Herbicidal rate of 40% or more and less than 70%) | 0 (Herbicidal rate of 5% or less (almost no effect)) | 0 (Herbicidal rate of 5% or less (almost no effect)) | 3 (Herbicidal rate of 40% or more and less than 70%) | 3 (Herbicidal rate of 40% or more and less than 70%) | 0 (Herbicidal rate of 5% or less (almost no effect)) |  |  | 
2 | Cc1nn(C)c(=O)c(-c2c(-c3ccc(C#N)cc3)sc3ccc(Cl)cc23)c1O [2-112] |  | 5 (Herbicidal rate of 90% or more (almost completely withered)) | 0 (Herbicidal rate of 5% or less (almost no effect)) | 4 (Herbicidal rate of 70% or more and less than 90%) | 5 (Herbicidal rate of 90% or more (almost completely withered)) | 4 (Herbicidal rate of 70% or more and less than 90%) |  | 5 (Herbicidal rate of 90% or more (almost completely withered)) | 5 (Herbicidal rate of 90% or more (almost completely withered)) |  | 2 (Herbicidal rate of 20% or more and less than 40%) | 0 (Herbicidal rate of 5% or less (almost no effect)) | 3 (Herbicidal rate of 40% or more and less than 70%) | 5 (Herbicidal rate of 90% or more (almost completely withered)) | 5 (Herbicidal rate of 90% or more (almost completely withered)) | 5 (Herbicidal rate of 90% or more (almost completely withered)) | 5 (Herbicidal rate of 90% or more (almost completely withered)) | 4 (Herbicidal rate of 70% or more and less than 90%) | 5 (Herbicidal rate of 90% or more (almost completely withered))

Reference: patent US20230085307A1, “PYRIDAZINONE COMPOUND AND HERBICIDE” (NISSAN CHEMICAL CORPORATION, priority 2019, published 2023)
